# How the values were obtained:
# Format in all cases: cell-based, human
# HeLa cells [1] = experiment: MTT cytotoxicity assay, HeLa; settings: for Selectivity index (SI): IC50 healthy cells (MRC-5)/IC50 tumor cells; for Cytotoxicity range: concentration range 1–100 μM; for IC50: Homo sapiens, MTT
# Procedure: (§1) To examine and compare the antiproliferative activities of four enones, the cytotoxicity of the compounds was assessed by the 3-(4,5-dimethylthiazol-2-yl)-2,5-diphenyltetrazolium bromide (MTT) assay[9] in, colon cancer cells (HCT-116), cervical cancer cell line (HeLa) and human fibroblast lung cell line (MRC-5) that was used as a healthy control cell line. After trypsinization, seeded (5 × 10^3 cells per well in 96-well plates) cells were treated with different concentrations of the investigated enones (1, 3, 10, 30, and 100 μM) during 48 and 72 h period incubation period +37 °C and 5–6.5% CO2. After the incubation period, the medium was removed and MTT solution (5 mg ml^−1) was added to the wells.
# (§2) After a 3 hour incubation with the MTT solution, the resulting formazan crystals were dissolved in DMSO (67-68-5, Merck). Absorbance was subsequently measured at 595 nm using a microplate reader (Zenith 3100, Anthos Labtech Instruments). The percentage of cytotoxic cells was determined using the formula: cytotoxicity (%) = (1 − (exp. group (ABS))/(control group (ABS)) × 100). IC50 values were calculated using GraphPad Prism 10 software. The selectivity index (SI) was determined using the formula: SI?IC50 value for healthy cells/IC50 value for tumor cells.[9]
# HCT-116 cells [2] = experiment: MTT cytotoxicity assay, HCT-116; settings: for Cytotoxicity range: concentration range 1–100 μM; for Selectivity index (SI): IC50 healthy cells (MRC-5)/IC50 tumor cells; for IC50: Homo sapiens, MTT
# Procedure: as §1, §2
# MRC-5 cells = experiment: MTT cytotoxicity assay, MRC-5 healthy control cells; settings: Homo sapiens
# Procedure: as §1, §2
# HCT-116 cells [3] = experiment: Annexin V-FITC/7-AAD apoptosis flow cytometry, HCT-116; settings: IC50 concentration, 48 h
# Procedure: (§3) The type of cell death was assessed using flow cytometry using FITC Annexin V Apoptosis Detection Kit with 7-AAD (640922, Bio legend).[8] […] After treatment, cells were harvested, washed with PBS (resuspended in 100 μl of ice-cold 1X binding buffer), stained (20 μl of 7-AAD and 10 μl of Annexin V-FITC), and incubated in the dark for 15 min at +4 °C. After incubation, 400 μl of binding buffer was added and the samples were analyzed using flow cytometer Cytomics FC500 (Beckman Coulter, USA). Data analysis was performed using FlowJo Software and presented with histogram and dot plots.
# HeLa cells [4] = experiment: Annexin V-FITC/7-AAD apoptosis flow cytometry, HeLa; settings: IC50 concentration, 48 h
# Procedure: as §3
# [5] = system: Bax and Bcl-2 in HCT-116 cells; experiment: Flow cytometric analysis of Bax and Bcl-2 expression, HCT-116; settings: HCT-116, IC50 concentration, 48 h, from MFI
# Procedure: (§4) Cells were washed with PBS, fixed, permeabilized using Fixation and Permeabilization Kit (eBioscience), and stained separately for Bcl-2, Bax, and cleaved-caspase-3.[8,9] Permeabilized cells were incubated with primary antibodies: mouse anti-human-Bcl-2 (DC21, sc-783, Santa Cruz Biotech. Inc.), mouse anti-human Bax (N20, sc-493, Santa Cruz Biotech. Inc.), and anti-cleaved caspase-3 (Cell signaling Technology 9661). Following antibody incubation, cells were washed and incubated with secondary Alexa 488-conjugated antibodies (ab185015, Abcam, United Kingdom) for 30 minutes. After an additional wash with PBS, flow cytometry analysis was performed.
# (§5) Data were analyzed using FlowJo Software. The expression of Bcl-2 and Bax proteins was quantified as mean fluorescence intensity (MFI). The results were presented with bar graphs. Bax/Bcl-2 index was calculated using the formula […]. The percentage of cells expressing active caspase-3 (MFI) was presented in histograms.
# [6] = system: Bax and Bcl-2 in HeLa cells; experiment: Flow cytometric analysis of Bax and Bcl-2 expression, HeLa; settings: IC50 concentration, 48 h
# Procedure: as §4, §5
# [7] = system: active caspase-3 in HCT-116 cells; experiment: Flow cytometric analysis of active caspase-3, HCT-116; settings: IC50 concentration, 48 h, vs control
# Procedure: as §4, §5
# [8] = system: active caspase-3 in HeLa cells; experiment: Flow cytometric analysis of active caspase-3, HeLa; settings: IC50 concentration, 48 h, vs control
# Procedure: as §4, §5
# [9] = system: mitochondrial membrane potential (ΔΨm) in HCT-116 cells; experiment: Mitochondrial membrane potential (ΔΨm) JC-10 analysis, HCT-116; settings: IC50 concentration, 48 h
# Procedure: (§6) Changes in the ΔΨm caused by 48 hours of enones treatment, were assessed using JC-10 dye.[10]. (Enzo Life Sciences, Farmingdale, NY, USA).
# (§7) In healthy cells, JC-10 dye accumulates in the mitochondria as red fluorescent aggregates. However, upon cell damage, changes in ΔΨm occur and result in dislocation of JC-10 from the mitochondria to the cytosol and the monomerization of aggregates, shifting fluorescence from red to green. Cells were cultured in 24-well plate (3 × 10^4 cells per well) overnight in the incubator (5% CO2, 37 °C). […] Following treatment, cells were washed with warm 1xPBS and incubated with JC-10 dye (2.5 μM in warm PBS) at 5% CO2, 37 °C for 20 minutes. Cells were then washed with 1xPBS and observed using an Olympus IX50 inverted fluorescence microscope. Images were captured and analyzed using ImageJ software. The ratio of fluorescence emissions at 525 and 590 nm was used for quantification analysis.
# [10] = system: mitochondrial membrane potential (ΔΨm) in HeLa cells; experiment: Mitochondrial membrane potential (ΔΨm) JC-10 analysis, HeLa; settings: IC50 concentration, 48 h
# Procedure: as §6, §7
# [11] = system: cytochrome c in HCT-116 cells; experiment: Cytochrome c localization by immunofluorescence, HCT-116; settings: IC50 concentration, 48 h
# Procedure: After 48 hours of treatment, immunofluorescence analysis of cytochrome c distribution and expression in treated cells was performed using glass coverslips.[10] Following the treatment, cells were washed with PBS, fixed in 4% formaldehyde for 20 min, and permeabilized with 0.2% Tween-20. Blocking was performed using a buffer containing 0.1% Tween-20 and 10% FBS for 30 min. The cells were then incubated for 1 hour at room temperature with a monoclonal mouse anti-human cytochrome c antibody (1:100, G7421, Promega, USA,)
# Subsequently, the cells were incubated for 30 minutes with a goat anti-mouse FITC (1:200, diluted in blocking buffer), washed, and images were acquired using an inverted fluorescence microscope (Olympus IX50). Image analysis was performed using ImageJ software.
# HCT-116 cells [12] = experiment: Cell cycle analysis (PI, flow cytometry), HCT-116; settings: IC50 concentration, 48 h; control 27.4%
# Procedure: (§8) After treatment of HCT-116 and HeLa cells with enones, cells were harvested, washed with PBS, and fixed in 70% ice-cold ethanol at +4 °C overnight.[10] The cells were then pelleted, resuspended in 1 ml PBS containing RNAse A (12091021, Sigma Aldrich), and incubated for 30 min at 37 °C. A staining solution containing propidium iodide (1 mg PI per ml PBS) (B7758, Biotrend) was added to cells, followed by 15 min incubation in the dark. Cells were analyzed by flow cytometer Cytomics FC500. DNA content was determined using Flowing Software and cell cycle distribution was presented by graph (histograms).
# HeLa cells [13] = experiment: Cell cycle analysis (PI, flow cytometry), HeLa; settings: IC50 concentration, 48 h; control 29.9%
# Procedure: as §8
smiles,measurement,setting,value
"COc1cc(/C=C/C(=O)C(C)C)ccc1OCC(=O)O [E2, (E)-2-(2-Methoxy-4-(4-methyl-3-oxopent-1-en-1-yl)phenoxy)acetic acid]",Selectivity index (SI),HeLa cells [1]; 48 h,14.96
same,Cytotoxicity range,HeLa cells [1]; 48 h,4.74–51.94%
same,Selectivity index (SI),HeLa cells [1]; 72 h,26.23
same,Cytotoxicity range,HeLa cells [1]; 72 h,32.98–71.66%
same,IC50,HeLa cells [1]; 48 h,13.4 ± 1.43 µM
same,IC50,HeLa cells [1]; 72 h,3.43 ± 0.09 µM
same,percentage of cytotoxic HCT-116 cells compared to HeLa cells (fold),"HCT-116 cells [2]; 48 h, over the applied doses",1.3–2.3 fold
same,percentage of cytotoxic HCT-116 cells compared to control MRC-5 cells (fold),"HCT-116 cells [2]; 48 h, over the applied doses",2.9–5.2 fold
same,Cytotoxicity range,"HCT-116 cells [2]; HCT-116, 48 h",10.87–71.88%
same,Selectivity index (SI),"HCT-116 cells [2]; HCT-116, 48 h",39.22
same,Cytotoxicity range,"HCT-116 cells [2]; HCT-116, 72 h",65.23–72.73%
same,Selectivity index (SI),"HCT-116 cells [2]; HCT-116, 72 h",100.63
same,IC50,"HCT-116 cells [2]; HCT-116, 48 h",5.1 ± 0.92 µM
same,IC50,"HCT-116 cells [2]; HCT-116, 72 h",0.9 ± 0.02 µM
same,IC50,"MRC-5 cells; MRC5, MRC-5, 48 h",> 200 µM
same,IC50,"MRC-5 cells; MRC5, MRC-5, 72 h",> 90 µM
same,increase of percentage of apoptotic HCT-116 cells compared to control HCT-116 cells,HCT-116 cells [3],8.8 fold
same,percentage of total apoptotic HCT-116 cells (sum of early and late),HCT-116 cells [3],61.6%
same,total percentage of apoptotic HeLa cells,HeLa cells [4],54.02%
same,Bax/Bcl-2 ratio,[5],1.9
same,Bax/Bcl-2 ratio,[6]; from MFI,1.4
same,Bcl-2 protein expression vs control cells,[6]; p < 0.05,decreased
same,MFI of active caspase-3 in HCT-116 (fold change),[7],2.4 fold change
same,MFI of active caspase-3 in HeLa (fold change),[8],2 fold change
same,JC10-green/JC10 red ratio in HCT-116 cells,[9],2.15
same,JC10-green/JC10 red ratio in HeLa cells,[10],1.9
same,RELATIVE RATIO OF CYTOSOL CYTC TO MITOCHONDRIAL CYT C IN HCT-116 CELLS,[11],1.5
same,"% OF HCT-116 CELLS, G2/M",HCT-116 cells [12],56.1%
same,"% OF HELA CELLS, G2/M",HeLa cells [13],66%
